Results from US20220162191A1, “SMALL MOLECULE MODULATORS OF IL-17” (LEO PHARMA A/S, priority 2019, published 2022).

Target: T1, human IL-17AA (Homo sapiens, UniProt Q16552)
T1 construct: host or cells: HEK (human embryonic kidney) cells
T1 sequence (Q16552 24-155) 1: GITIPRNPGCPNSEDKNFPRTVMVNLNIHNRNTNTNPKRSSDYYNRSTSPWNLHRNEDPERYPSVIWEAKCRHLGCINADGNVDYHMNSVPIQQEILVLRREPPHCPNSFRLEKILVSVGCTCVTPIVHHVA
T1 sequence (Q16552 24-155) 2: T1 sequence (Q16552 24-155) 1
Assay: IL-8 release assay in human epithelial keratinocytes adult (HEKa)
Format: cell-based
Conditions: 3 ng/ml human IL-17AA + 10 ng/ml human TNFalpha, 68-72 h, IL-8 by HTRF, read-out: Rel EC50 L-8 release assay
Procedure, shortened: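 Adult human keratinocytes in Epilife with HKGS minus hydrocortisone, treated with compound then stimulated with final 3 ng/ml HEK-derived human IL-17AA plus 10 ng/ml TNF-alpha for 68–72 h at 37 °C; TNF-alpha alone defines 100% inhibition. Secreted IL-8 by HTRF; relative IC50 and Emax from four-parameter fits.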

First: Cc1n[nH]c(C)c1-c1ccc(NC(=O)[C@H](Cc2cc(-c3cccc(C(C)(C)N)c3)ccc2Cl)NC(=O)c2ccnn2C)cc1 [Example 59, N-[(1S)-1-[[5-[3-(1-amino-1-methyl-ethyl)phenyl]-2-chloro-phenyl]methyl]-2-[4-(3,5-dimethyl-1H-pyrazol-4-yl)anilino]-2-oxo-ethyl]-2-methyl-pyrazole-3-carboxamide]
Second: Cc1n[nH]c(C)c1-c1ccc(NC(=O)[C@H](Cc2cc(-c3cccc(CN)c3)ccc2Cl)NC(=O)c2ccnn2C)cc1 [Example 61, N-[(1S)-1-[[5-[3-(aminomethyl)phenyl]-2-chloro-phenyl]methyl]-2-[4-(3,5-dimethyl-1H-pyrazol-4-yl)anilino]-2-oxo-ethyl]-2-methyl-pyrazole-3-carboxamide]
The EC50 of the first is lower: < 100 nM for the first, 100 to 1000 nM for the second.

First: Cc1n[nH]c(C)c1-c1ccc(NC(=O)[C@H](Cc2cc(-c3cccc(CN(C)C)c3)ccc2Cl)NC(=O)c2ccnn2C)cc1 [Example 60, N-[(1S)-1-[[2-chloro-5-[3-[(dimethylamino)methyl]phenyl]phenyl]methyl]-2-[4-(3,5-dimethyl-1H-pyrazol-4-yl)anilino]-2-oxo-ethyl]-2-methyl-pyrazole-3-carboxamide]
Second: CC(C)c1cc(-c2ccc(Cl)c(CC(NC(=O)c3ccnn3C)C(=O)Nc3ccc(-c4nncn4C)cc3)c2)ccn1 (stereo not shown) [Example 75, N-[1-[[2-chloro-5-(2-isopropyl-4-pyridyl)phenyl]methyl]-2-[4-(4-methyl-1,2,4-triazol-3-yl)anilino]-2-oxo-ethyl]-2-methyl-pyrazole-3-carboxamide]
The EC50 of the first is lower: < 100 nM for the first, > 1000 nM for the second. The first is the more potent here.

`CC(C)n1cc(-c2ccc(Cl)c(CC(NC(=O)c3ccnn3C)C(=O)Nc3ccc(-c4nncn4C)cc3)c2)ccc1=O` (stereo not shown) [Example 62, N-[1-[[2-chloro-5-(1-isopropyl-6-oxo-3-pyridyl)phenyl]methyl]-2-[4-(4-methyl-1,2,4-triazol-3-yl)anilino]-2-oxo-ethyl]-2-methyl-pyrazole-3-carboxamide] and `CC(C)n1cc(-c2ccc(Cl)c(CC(NC(=O)c3ccnn3C)C(=O)Nc3ccc(-c4nncn4C4CC4)cc3)c2)ccc1=O` (stereo not shown) [Example 72, N-[1-[[2-chloro-5-(1-isopropyl-6-oxo-3-pyridyl)phenyl]methyl]-2-[4-(4-cyclopropyl-1,2,4-triazol-3-yl)anilino]-2-oxo-ethyl]-2-methyl-pyrazole-3-carboxamide] cannot be ordered by EC50: > 1000 nM for the first, > 1000 nM for the second.

`Cc1nocc1C(=O)NC(Cc1cc(-c2ccc(=O)n(C3CC3)c2)ccc1Cl)C(=O)Nc1ccc(-c2nncn2C)cc1` (stereo not shown) [Example 63, N-[1-[[2-chloro-5-(1-cyclopropyl-6-oxo-3-pyridyl)phenyl]methyl]-2-[4-(4-methyl-1,2,4-triazol-3-yl)anilino]-2-oxo-ethyl]-3-methyl-isoxazole-4-carboxamide] and `Cc1cc(-c2ccc(Cl)c(CC(NC(=O)c3ccnn3C)C(=O)Nc3ccc(-c4nncn4C4CC4)cc3)c2)ccn1` (stereo not shown) [Example 73, N-[1-[[2-chloro-5-(2-methyl-4-pyridyl)phenyl]methyl]-2-[4-(4-cyclopropyl-1,2,4-triazol-3-yl)anilino]-2-oxo-ethyl]-2-methyl-pyrazole-3-carboxamide] cannot be ordered by EC50: > 1000 nM for the first, > 1000 nM for the second.

Compared with `Cn1cnnc1-c1ccc(NC(=O)C(Cc2cc(-c3ccnc(CC(C)(C)O)c3)ccc2Cl)NC(=O)c2ccnn2C)cc1` (stereo not shown) [Example 64, N-[1-[[2-chloro-5-[2-(2-hydroxy-2-methyl-propyl)-4-pyridyl]phenyl]methyl]-2-[4-(4-methyl-1,2,4-triazol-3-yl)anilino]-2-oxo-ethyl]-2-methyl-pyrazole-3-carboxamide], `CC(C)c1cc(-c2ccc(Cl)c(CC(NC(=O)c3ccnn3C)C(=O)Nc3ccc(-c4nncn4C4CC4)cc3)c2)ccn1` (stereo not shown) [Example 74, N-[1-[[2-chloro-5-(2-isopropyl-4-pyridyl)phenyl]methyl]-2-[4-(4-cyclopropyl-1,2,4-triazol-3-yl)anilino]-2-oxo-ethyl]-2-methyl-pyrazole-3-carboxamide] is lower in EC50: > 1000 nM for the first, 100 to 1000 nM for the second.

`CC(C)n1cc(-c2ccc(Cl)c(CC(NC(=O)c3ccnn3C)C(=O)Nc3ccc(-c4cnnn4C)cc3)c2)ccc1=O` (stereo not shown) [Example 65, N-[1-[[2-chloro-5-(1-isopropyl-6-oxo-3-pyridyl)phenyl]methyl]-2-[4-(3-methyltriazol-4-yl)anilino]-2-oxo-ethyl]-2-methyl-pyrazole-3-carboxamide] and `Cc1nncn1-c1ccc(NC(=O)C(Cc2cc(-c3ccc(=O)n(C(C)C)c3)ccc2Cl)NC(=O)c2ccnn2C)cc1` (stereo not shown) [Example 77, N-[1-[[2-chloro-5-(1-isopropyl-6-oxo-3-pyridyl)phenyl]methyl]-2-[4-(3-methyl-1,2,4-triazol-4-yl)anilino]-2-oxo-ethyl]-2-methyl-pyrazole-3-carboxamide] cannot be ordered by EC50: > 1000 nM for the first, > 1000 nM for the second.

`CC(C)n1cc(-c2ccc(Cl)c(CC(NC(=O)c3ccnn3C)C(=O)Nc3ccc(-c4nn[nH]n4)cc3)c2)ccc1=O` (stereo not shown) [Example 66, N-[1-[[2-chloro-5-(1-isopropyl-6-oxo-3-pyridyl)phenyl]methyl]-2-oxo-2-[4-(2H-tetrazol-5-yl)anilino]ethyl]-2-methyl-pyrazole-3-carboxamide] and `Cc1nccn1-c1ccc(NC(=O)C(Cc2cc(-c3ccc(=O)n(C(C)C)c3)ccc2Cl)NC(=O)c2ccnn2C)cc1` (stereo not shown) [Example 68, N-[1-[[2-chloro-5-(1-isopropyl-6-oxo-3-pyridyl)phenyl]methyl]-2-[4-(2-methylimidazol-1-yl)anilino]-2-oxo-ethyl]-2-methyl-pyrazole-3-carboxamide] cannot be ordered by EC50: > 1000 nM for the first, > 1000 nM for the second.

Compared with `Cc1nccn1-c1ccc(NC(=O)C(Cc2cc(-c3ccc(=O)n(C(C)C)c3)ccc2Cl)NC(=O)OC(C)(C)C)cc1` (stereo not shown) [Example 67, tert-butyl N-[1-[[2-chloro-5-(1-isopropyl-6-oxo-3-pyridyl)phenyl]methyl]-2-[4-(2-methylimidazol-1-yl)anilino]-2-oxo-ethyl]carbamate], `CC(C)n1cc(-c2ccc(Cl)c(CC(NC(=O)OC(C)(C)C)C(=O)Nc3ccc(-c4cnn[nH]4)cc3)c2)ccc1=O` (stereo not shown) [Example 76, tert-butyl N-[1-[[2-chloro-5-(1-isopropyl-6-oxo-3-pyridyl)phenyl]methyl]-2-oxo-2-[4-(1H-triazol-5-yl)anilino]ethyl]carbamate] is higher in EC50: 100 to 1000 nM for the first, > 1000 nM for the second.

Compared with `CC(C)n1cc(-c2ccc(Cl)c(CC(NC(=O)c3ccnn3C)C(=O)Nc3ccc(-c4nncn4C)c(O)c3)c2)ccc1=O` (stereo not shown) [Example 69, N-[1-[[2-chloro-5-(1-isopropyl-6-oxo-3-pyridyl)phenyl]methyl]-2-[3-hydroxy-4-(4-methyl-1,2,4-triazol-3-yl)anilino]-2-oxo-ethyl]-2-methyl-pyrazole-3-carboxamide], `Cc1nocc1C(=O)N[C@@H](Cc1cc(-c2ccc(=O)n(C(C)C)c2)ccc1Cl)C(=O)Nc1ccc(-c2ccnn2C)c(O)c1` [Example 71, N-[(1S)-1-[[2-chloro-5-(1-isopropyl-6-oxo-3-pyridyl)phenyl]methyl]-2-[3-hydroxy-4-(2-methylpyrazol-3-yl)anilino]-2-oxo-ethyl]-3-methyl-isoxazole-4-carboxamide] is lower in EC50: 100 to 1000 nM for the first, < 100 nM for the second. The second is the more potent here.

With `COc1cc(NC(=O)[C@H](Cc2cc(-c3ccc(=O)n(C(C)C)c3)ccc2Cl)NC(=O)c2conc2C)ccc1-c1ccnn1C` [Example 70, N-[(1S)-1-[[2-chloro-5-(1-isopropyl-6-oxo-3-pyridyl)phenyl]methyl]-2-[3-methoxy-4-(2-methylpyrazol-3-yl)anilino]-2-oxo-ethyl]-3-methyl-isoxazole-4-carboxamide] the EC50 was > 1000 nM.
